Tests used:
RPTEC/hTERT cells [1] = experiment: Cell viability assay (CellTiter-Glo); assay type: cell-based, human; conditions: cisplatin 50 μM, KW-6002 0.5-12.8 μM, 48 hours
Description: (§1) Cells were cultured in DMEM/F12 medium (Dulbecco's modified Eagle's medium and Ham's F12 medium, Thermo Fisher) supplemented with 1% penicillin/streptomycin, 5 pmol/L triiodo-L-thyronine, 10 ng/ml recombinant human epidermal growth factor, 3.5 μg/mL ascorbic acid, 5.0 μg/mL human transferrin, 5.0 μg/mL insulin, 25 ng/mL prostaglandin E1, 25 ng/ml hydrocortisone, 8.65 ng/mL sodium selenite, 0.1 mg/mL G418 and 1.2 g/L sodium bicarbonate (Sigma). Lewis lung carcinoma mouse LLC1 cells were cultured in DMEM glutamax (Thermo Fisher) containing 10% fetal calf serum and 1% penicillin/streptomycin. Cells were cultured at 37° C. in a humidified atmosphere of 5% CO2.
Viability was assessed using the CellTiter-Glo® Luminescent Cell Viability Assay (Promega) according to manufacturer's recommendations.

RPTEC/hTERT1 cells = experiment: Comet assay in RPTEC/hTERT1 cells; assay type: cell-based, human; conditions: FIG. 6A
Description: FIG. 6. KW6002 alleviates the cisplatin-induced nephrotoxicity associated with apoptosis, lipid metabolism, and oxidative stress. (A) Tail moment assessed by comet assay; 50 cells/condition were analyzed. (B and C) KW6002 attenuates cisplatin-induced renal lipid accumulation, assessed by Red Oil staining. […] Results are the mean±SEM (n=6-9 mice/group). (F-H) KW6002 attenuated cisplatin-induced oxidative stress in RPTEC/hTERT1 cells. (F and G) Gene expression of Nrf2 (F) and HO1 (G). […] Results are the mean±SEM (n=3 independent experiments).
(§2) Treated cells were suspended (60,000 cells/mL) in low-melt agarose (1613111, Bio-Rad) 0.5% in PBS at 42° C. The suspension was then immediately spread on a comet slide (4250-200-03, R&D Systems). Agarose was allowed to cool down for 20 minutes at 4° C. Then, cell membranes were permeabilized with a lysis solution (2.5M NaCl, 100 mM EDTA, 10 mM Tris-HCl, 1% Triton X-100 [pH 10]) at 4° C. for 1 hour. […] The images were analyzed using an ImageJ in-home macro, in which the head (the nucleus) and tail (the DNA that migrated) of the comet were delimited to get the fluorescence intensity of the head, the fluorescence intensity of the tail, and the length of the tail. The calculation of tail moments was done using the following formula: (length of the comet tail×fluorescence intensity of the tail)/total fluorescence intensity (head+tail).

[2] = test system: mEERL tumors in C57B16/J mice; experiment: mEERL in vivo tumor model (HPV+ squamous carcinoma)
Description: FIG. 8. […] The arrow represents cisplatin and/or PBS injection. […] (E) Absolute tumor sizes in animals in the different groups.
We used a validated murine model of HPV+ oropharyngeal squamous cell carcinoma as previously described (noncommercial) (77). This model consists of oropharyngeal epithelial cells from C57Bl/6 male mice that stably express the HPV16 viral oncogenes E6 and E7, H-Ras, and luciferase (mEERL cells). mEERL cells were grown in a T75 flask until confluent, after which cells were trypsinized and harvested, washed 3 times with sterile PBS, and resuspended in 1 mL sterile PBS to the appropriate concentration. Mice were injected s.c. into the right flank with 20 μL solution containing either 1,000,000 mEERL cells or PBS (vehicle). The day of mEERL cell injection is indicated as day −14. Tumor volume was monitored using Vernier digital calipers.

LLC1 cells = experiment: γH2AX immunostaining in LLC1 cells; assay type: cell-based, mouse; conditions: 2 μM cisplatin, 10 nM KW-6002, 6 hours, FIG. 7B
Description: (§3) FIG. 7. […] Caspase 3/-7 activity (n=3 independent experiments) (A) and the number of γH2AX nuclear foci (n=36-63 nuclei/group) (B) were determined. […] Results are expressed as the mean±SEM (n=3 independent experiments). (E) Tail moment was assessed by comet assay. A total of 50 cells per condition were analyzed. *** P<0.001; 1-way ANOVA followed by Tukey's post hoc test. […] (I) KW6002 increased yH2AX expression in tumors from mice of the LLC1 syngeneic model. Quantification of nuclear yH2AX expression.
Cells were fixed with 4% paraformaldehyde, permeabilized with DPBS/0.1% Triton X100 and incubated with γH2AX (Ser139) antibody (1/400; #9718, Cell Signaling Technology) and then, Alexa Fluor 488 secondary antibody (1/200; Life Technologies). Samples were examined on an immunofluorescence microscope (Leica™ DMI8) and γH2AX nuclear foci were counted.

H1975 cells = experiment: Comet assay in H1975 cells; assay type: cell-based; conditions: FIG. 7E
Description: as §3, §2

RPTEC/hTERT cells [3] = experiment: Caspase 3/7 activity in RPTEC cells; assay type: cell-based, human; conditions: cisplatin 50 μM, 48 hours
Description: as §1
Apoptosis was assessed in RPTEC/hTERT and LLC1 cell lysates using the caspase-Glo 3/7 assay (Promega) according to manufacturer's recommendations.

RPTEC/hTERT cells [4] = experiment: Cell concentrations of platinum; assay type: cell-based, human; conditions: cisplatin 50 μM, KW-6002 25 μM, 48 hours
Description: Tissues (35 mg) and cell pellets were first mineralized with hydrochloric acid (30% Suprapur, Merck) or nitric acid (69.5%, Carlo Erba), respectively. Analysis of tissue samples was performed by Graphite Furnace Atomic Absorption Spectrometry (GF-AAS) using an Aanalyst 800 (Perkin Elmer)., while cell samples analysis was performed by Inductively Coupled Plasma Mass Spectrometry (ICP-MS) using an ICAP-Qc (Thermo Scientific). Platinum concentration was finally normalized to the accurately measured kidney mass, or to the number of cells previously assessed.

CCn1c(=O)c2c(nc(/C=C/c3ccc(OC)c(OC)c3)n2C)n(CC)c1=O [KW-6002, 8-[(E)-2-(3,4-dimethoxyphenyl)vinyl]-1,3-diethyl-7-methyl-3,7-dihydro-1H-purine-2,6-dione]
cisplatin-induced cell death (RPTEC/hTERT cells [1]): reduced cisplatin-induced cell death in a concentration-dependent manner
cisplatin-induced cell death (RPTEC/hTERT cells [1]; listed as KW6002): concentration-dependently reduced cisplatin-induced cell death
cisplatin-induced DNA damage (tail moment) (RPTEC/hTERT1 cells): inhibiting
cisplatin-induced pain hypersensitivity (von Frey) ([2]; FIG. 8D): alleviated cisplatin-induced pain hypersensitivity
tumor control by cisplatin (tumor size) ([2]; FIG. 8E): significantly potentiated tumor control by cisplatin
indicators of renal toxicity (KIM-1) induced by cisplatin ([2]; tumor-bearing mice, FIG. 8A): limited
expression of Tnf induced by cisplatin ([2]; tumor-bearing mice, FIG. 8B): limited
expression of I16 induced by cisplatin ([2]; tumor-bearing mice, FIG. 8C): limited
DNA damage: γH2AX nuclear foci (LLC1 cells): increased number of H2AX+ cells
DNA damage: tail moment (H1975 cells): did not impede the antitumoral effect of cisplatin
cisplatin-induced apoptosis (RPTEC/hTERT cells [3]): inhibited cisplatin-induced apoptosis
cisplatin-induced apoptosis (RPTEC/hTERT cells [3]; listed as KW6002): inhibiting cisplatin-induced apoptosis
accumulation of cisplatin (platinum) in cells (RPTEC/hTERT cells [4]): limits the accumulation of cisplatin

Reference: patent US20250161312A1, “A METHOD FOR THE TREATMENT OF CHEMOTHERAPEUTIC DRUG-INDUCED NEPHROTOXICITY” (INSTITUT NATIONAL DE LA SANTÉ ET DE LA RECHERCHE MÉDICALE, priority 2022, published 2025)
